Test results taken from patent US9963442B2, “Pyridones as herbicides” (E I DU PONT DE NEMOURS AND COMPANY, priority 2014, dated 2018).

Experiments:
Type in all cases: in vivo
[1] = system: Italian ryegrass (Lolium multiflorum); experiment: Test A preemergence, directed soil spray; settings: approx. 10 days
Method in brief: (§1)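 Visual injury score, 0–100 scale (100 = complete control), versus untreated plants after ~10 days greenhouse. Pre: directed soil spray on seeded loam/sand. Post: 2–10 cm plants, 1–2 leaves. Solvent/surfactant formulation.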

[2] = system: barnyardgrass (Echinochloa crus-galli); experiment: Test A preemergence, directed soil spray; settings: approx. 10 days
Method in brief: as §1

[3] = system: giant foxtail (Setaria faberii); experiment: Test A preemergence, directed soil spray; settings: approx. 10 days
Method in brief: as §1

kochia (Kochia scoparia) = experiment: Test A preemergence, directed soil spray; settings: approx. 10 days
Method in brief: as §1

[4] = system: pigweed (Amaranthus retroflexus); experiment: Test A preemergence, directed soil spray; settings: approx. 10 days
Method in brief: as §1

[5] = system: ragweed (common ragweed, Ambrosia elatior); experiment: Test A preemergence, directed soil spray; settings: approx. 10 days
Method in brief: as §1

[6] = system: barnyardgrass (Echinochloa crus-galli); experiment: Test B flooded paddy test; design: key: 0 = no effect, 100 = complete control; settings: Flood, 250 g ai/ha applied to paddy water at 2-leaf stage; visually evaluated after 13 to 15 days; scale 0 (no effect) to 100 (complete control)
Method in brief: (§2)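 Paddy-water application at a 3 cm flood, young plants having two leaves. Water level maintained; greenhouse, 13–15 days; visual 0–100 control rating.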

[7] = system: ducksalad (Heteranthera limosa); experiment: Test B flooded paddy test; design: key: 0 = no effect, 100 = complete control; settings: Flood, 250 g ai/ha applied to paddy water at 2-leaf stage; visually evaluated after 13 to 15 days; scale 0 (no effect) to 100 (complete control)
Method in brief: as §2

rice (Oryza sativa) = experiment: Test B flooded paddy test; design: key: 0 = no effect, 100 = complete control; settings: Flood, 250 g ai/ha applied to paddy water at 2-leaf stage; visually evaluated after 13 to 15 days; scale 0 (no effect) to 100 (complete control)
Method in brief: as §2

[8] = system: sedge, umbrella (small-flower umbrella sedge, Cyperus difformis); experiment: Test B flooded paddy test; design: key: 0 = no effect, 100 = complete control; settings: Flood, 250 g ai/ha applied to paddy water at 2-leaf stage; visually evaluated after 13 to 15 days; scale 0 (no effect) to 100 (complete control)
Method in brief: as §2

[9] = system: barnyardgrass (Echinochloa crus-galli); experiment: Test C preemergence; settings: scale 0 to 100, 0 is no effect, 100 is complete control
Description: (§3) Seeds of plant species selected from blackgrass (Alopecurus myosuroides), Italian ryegrass (Lolium multiflorum), winter wheat (Triticum aestivum), galium (catchweed bedstraw, Galium aparine), corn (Zea mays), large (Lg) crabgrass (Digitaria sanguinalis), giant foxtail (Setaria faberii), johnsongrass (Sorghum halepense), lambsquarters (Chenopodium album), morningglory (Ipomoea coccinea), yellow nutsedge (Cyperus esculentus), pigweed (Amaranthus retroflexus), ragweed (common ragweed, Ambrosia elatior), soybean (Glycine max), barnyardgrass (Echinochloa crus-galli), oilseed rape (Brassica napus), waterhemp (common waterhemp, Amaranthus rudis), and velvetleaf (Abutilon theophrasti) were planted into a blend of loam soil and sand and treated preemergence with test chemicals formulated in a non-phytotoxic solvent mixture which included a surfactant. At the same time, plants selected from these crop and weed species and also chickweed (common chickweed, Stellaria media), kochia (Kochia scoparia), and wild oat (Avena fatua), were planted in pots containing Sunshine Redi-Earth® planting medium comprising spaghnum peat moss, vermiculite, starter nutrients and dolomitic limestone and treated with postemergence applications of test chemicals formulated in the same manner. Plants ranged in height from 2 to 18 cm (1- to 4-leaf stage) for postemergence treatments. Treated plants and controls were maintained in a greenhouse for 13 to 15 days, after which time all species were compared to controls and visually evaluated. Plant response ratings, summarized in Table C, are based on a scale of 0 to 100 where 0 is no effect and 100 is complete control. A dash (-) response means no test result.

[10] = system: galium (catchweed bedstraw, Galium aparine); experiment: Test C preemergence; settings: scale 0 to 100, 0 is no effect, 100 is complete control
Description: as §3

[11] = system: giant foxtail (Setaria faberii); experiment: Test C preemergence; settings: scale 0 to 100, 0 is no effect, 100 is complete control
Description: as §3

[12] = system: large (Lg) crabgrass (Digitaria sanguinalis); experiment: Test C preemergence; settings: scale 0 to 100, 0 is no effect, 100 is complete control
Description: as §3

[13] = system: velvetleaf (Abutilon theophrasti); experiment: Test C preemergence; settings: scale 0 to 100, 0 is no effect, 100 is complete control
Description: as §3

[14] = system: winter wheat (Triticum aestivum); experiment: Test C preemergence; settings: scale 0 to 100, 0 is no effect, 100 is complete control
Description: as §3

[15] = system: barnyardgrass (Echinochloa crus-galli); experiment: Test C postemergence; settings: scale 0 to 100, 0 is no effect, 100 is complete control
Description: as §3

[16] = system: ragweed (common ragweed, Ambrosia elatior); experiment: Test C postemergence; settings: scale 0 to 100, 0 is no effect, 100 is complete control
Description: as §3

SMILES: O=c1cccc(Oc2ncc(Cl)cn2)n1-c1ncc(Cl)cn1 [Compound 6]
- Plant response rating (0 to 100 scale, 0 no effect, 100 complete control), Ryegrass, Italian ([1]; 31 g ai/ha): 0
- Plant response rating (0 to 100 scale, 0 no effect, 100 complete control), Ryegrass, Italian ([1]; 125 g ai/ha): 10
- Plant response rating (0 to 100 scale, 0 no effect, 100 complete control), Barnyardgrass ([2]; 31 g ai/ha): 20
- Plant response rating (0 to 100 scale, 0 no effect, 100 complete control), Barnyardgrass ([2]; 125 g ai/ha): 70
- Plant response rating (0 to 100 scale, 0 no effect, 100 complete control), Foxtail, Giant ([3]; 31 g ai/ha): 60
- Plant response rating (0 to 100 scale, 0 no effect, 100 complete control), Foxtail, Giant ([3]; 125 g ai/ha): 100
- Plant response rating (0 to 100 scale, 0 no effect, 100 complete control), Kochia (kochia (Kochia scoparia); 31 g ai/ha): 60
- Plant response rating (0 to 100 scale, 0 no effect, 100 complete control), Kochia (kochia (Kochia scoparia); 125 g ai/ha): 100
- Plant response rating (0 to 100 scale, 0 no effect, 100 complete control), Pigweed ([4]; 31 g ai/ha): 80
- Plant response rating (0 to 100 scale, 0 no effect, 100 complete control), Pigweed ([4]; 125 g ai/ha): 100
- Plant response rating (0 to 100 scale, 0 no effect, 100 complete control), Ragweed ([5]; 31 g ai/ha): 70
- Plant response rating (0 to 100 scale, 0 no effect, 100 complete control), Ragweed ([5]; 125 g ai/ha): 80
- Plant response rating, Barnyardgrass [6]: 0
- Plant response rating, Ducksalad [7]: 80
- Plant response rating, Rice (rice (Oryza sativa)): 0
- Plant response rating, Sedge, Umbrella [8]: 85
- Plant response rating, Barnyardgrass ([9]; 16 g ai/ha): 0
- Plant response rating, Barnyardgrass ([9]; 31 g ai/ha): 5
- Plant response rating, Barnyardgrass ([9]; 62 g ai/ha): 10
- Plant response rating, Barnyardgrass ([9]; 125 g ai/ha): 40
- Plant response rating, Galium ([10]; 16 g ai/ha): 80
- Plant response rating, Galium ([10]; 31 g ai/ha): 90
- Plant response rating, Galium ([10]; 62 g ai/ha): 90
- Plant response rating, Galium ([10]; 125 g ai/ha): 90
- Plant response rating, Foxtail, Giant ([11]; 16 g ai/ha): 0
- Plant response rating, Foxtail, Giant ([11]; 31 g ai/ha): 5
- Plant response rating, Foxtail, Giant ([11]; 62 g ai/ha): 70
- Plant response rating, Foxtail, Giant ([11]; 125 g ai/ha): 100
- Plant response rating, Crabgrass, Large ([12]; 16 g ai/ha): 5
- Plant response rating, Crabgrass, Large ([12]; 31 g ai/ha): 50
- Plant response rating, Crabgrass, Large ([12]; 62 g ai/ha): 90
- Plant response rating, Crabgrass, Large ([12]; 125 g ai/ha): 100
- Plant response rating, Velvetleaf ([13]; 16 g ai/ha): 10
- Plant response rating, Velvetleaf ([13]; 31 g ai/ha): 25
- Plant response rating, Velvetleaf ([13]; 62 g ai/ha): 40
- Plant response rating, Velvetleaf ([13]; 125 g ai/ha): 80
- Plant response rating, Wheat ([14]; 16 g ai/ha): 0
- Plant response rating, Wheat ([14]; 31 g ai/ha): 0
- Plant response rating, Wheat ([14]; 62 g ai/ha): 5
- Plant response rating, Wheat ([14]; 125 g ai/ha): 0
- Plant response rating, Barnyardgrass ([15]; 16 g ai/ha): 5
- Plant response rating, Barnyardgrass ([15]; 31 g ai/ha): 5
- Plant response rating, Barnyardgrass ([15]; 62 g ai/ha): 5
- Plant response rating, Barnyardgrass ([15]; 125 g ai/ha): 10
- Plant response rating, Ragweed ([16]; 16 g ai/ha): 25
- Plant response rating, Ragweed ([16]; 31 g ai/ha): 45
- Plant response rating, Ragweed ([16]; 62 g ai/ha): 40
- Plant response rating, Ragweed ([16]; 125 g ai/ha): 70

SMILES: O=c1cccc(Oc2ncc(Cl)cn2)n1-c1ccc(C(F)(F)F)cn1 [Compound 7]
- Plant response rating (0 to 100 scale, 0 no effect, 100 complete control), Ryegrass, Italian ([1]; 31 g ai/ha): 10
- Plant response rating (0 to 100 scale, 0 no effect, 100 complete control), Ryegrass, Italian ([1]; 125 g ai/ha): 60
- Plant response rating (0 to 100 scale, 0 no effect, 100 complete control), Barnyardgrass ([2]; 31 g ai/ha): 20
- Plant response rating (0 to 100 scale, 0 no effect, 100 complete control), Barnyardgrass ([2]; 125 g ai/ha): 70
- Plant response rating (0 to 100 scale, 0 no effect, 100 complete control), Foxtail, Giant ([3]; 31 g ai/ha): 60
- Plant response rating (0 to 100 scale, 0 no effect, 100 complete control), Foxtail, Giant ([3]; 125 g ai/ha): 100
- Plant response rating (0 to 100 scale, 0 no effect, 100 complete control), Kochia (kochia (Kochia scoparia); 31 g ai/ha): 30
- Plant response rating (0 to 100 scale, 0 no effect, 100 complete control), Kochia (kochia (Kochia scoparia); 125 g ai/ha): 70
- Plant response rating (0 to 100 scale, 0 no effect, 100 complete control), Pigweed ([4]; 31 g ai/ha): 100
- Plant response rating (0 to 100 scale, 0 no effect, 100 complete control), Pigweed ([4]; 125 g ai/ha): 100
- Plant response rating (0 to 100 scale, 0 no effect, 100 complete control), Ragweed ([5]; 31 g ai/ha): 10
- Plant response rating (0 to 100 scale, 0 no effect, 100 complete control), Ragweed ([5]; 125 g ai/ha): 70
- Plant response rating, Barnyardgrass [6]: 0
- Plant response rating, Ducksalad [7]: 100
- Plant response rating, Rice (rice (Oryza sativa)): 0
- Plant response rating, Sedge, Umbrella [8]: 90
- Plant response rating, Barnyardgrass ([9]; 16 g ai/ha): 5
- Plant response rating, Barnyardgrass ([9]; 31 g ai/ha): 10
- Plant response rating, Barnyardgrass ([9]; 62 g ai/ha): 35
- Plant response rating, Barnyardgrass ([9]; 125 g ai/ha): 75
- Plant response rating, Galium ([10]; 16 g ai/ha): 0
- Plant response rating, Galium ([10]; 31 g ai/ha): 50
- Plant response rating, Galium ([10]; 62 g ai/ha): 98
- Plant response rating, Galium ([10]; 125 g ai/ha): 100
- Plant response rating, Foxtail, Giant ([11]; 16 g ai/ha): 25
- Plant response rating, Foxtail, Giant ([11]; 31 g ai/ha): 60
- Plant response rating, Foxtail, Giant ([11]; 62 g ai/ha): 85
- Plant response rating, Foxtail, Giant ([11]; 125 g ai/ha): 98
- Plant response rating, Crabgrass, Large ([12]; 16 g ai/ha): 5
- Plant response rating, Crabgrass, Large ([12]; 31 g ai/ha): 60
- Plant response rating, Crabgrass, Large ([12]; 62 g ai/ha): 95
- Plant response rating, Crabgrass, Large ([12]; 125 g ai/ha): 100
- Plant response rating, Velvetleaf ([13]; 16 g ai/ha): 5
- Plant response rating, Velvetleaf ([13]; 31 g ai/ha): 10
- Plant response rating, Velvetleaf ([13]; 62 g ai/ha): 35
- Plant response rating, Velvetleaf ([13]; 125 g ai/ha): 55
- Plant response rating, Wheat ([14]; 16 g ai/ha): 0
- Plant response rating, Wheat ([14]; 31 g ai/ha): 0
- Plant response rating, Wheat ([14]; 62 g ai/ha): 0
- Plant response rating, Wheat ([14]; 125 g ai/ha): 0
- Plant response rating, Barnyardgrass ([15]; 16 g ai/ha): 5
- Plant response rating, Barnyardgrass ([15]; 31 g ai/ha): 5
- Plant response rating, Barnyardgrass ([15]; 62 g ai/ha): 5
- Plant response rating, Barnyardgrass ([15]; 125 g ai/ha): 10
- Plant response rating, Ragweed ([16]; 16 g ai/ha): 25
- Plant response rating, Ragweed ([16]; 31 g ai/ha): 30
- Plant response rating, Ragweed ([16]; 62 g ai/ha): 35
- Plant response rating, Ragweed ([16]; 125 g ai/ha): 55
